Laboratory results: patent publication US20040038958A1, “Topical treatment of skin diseases” (priority 2002, published 2004)
“Also recorded” adds a separate entry of the source.

Experiments:
mice sensitized to TDI = test: Mouse ear swelling test in mice sensitized to toluene-2,4-diisocyanate (TDI), topical application; assay type: in vivo, BALB/c-mice; details: for TDI-induced ear swelling: AWD 12-281 1%, cilomilast 3%, diflorasone 0.05%
Method: FIG. 6: Effect of PDE 4 inhibitors on TDI induced ear swelling in mice. […] After 1 h (grey bars) groups of mice were treated with 3% AWD 12-281, 10% cilomilast or left untreated (TDI). After 24 h, ear swelling was determined (black bars). […] Female BALB/c-mice were obtained from Charles River (Sulzfeld, Germany) at the age of 8 weeks (20 g body weight). All animals were healthy and were housed in groups of six mice per cage at 22° C. with a 12-h light/dark-cycle. Water and a standard diet (Altromin, […], Germany) were available ad libitum. After settling in for 1 week, the abdominal skin of the mice was shaved and depilated with Veet®. Subsequently, the horny layers of the abdominal skin were stripped off ten times with adhesive tapes. […] Before as well as 24 h after challenge, the ear thickness was measured with a cutimeter (model 7309, Mitutoyo, Neuss, Germany) The swelling was calculated by comparison of the values before challenge with 24 h after challenge. […] The other mice were equally distributed to the treatment groups (n=6) according to their swelling intensity, so that each group contained animals which had responded to varying extents. They had to rest until the ear thickness had reached almost a normal level after 7 days. To exclude residues of the allergen on the ears, the untreated right ears were used for the main experiment. One group of mice (n=6) was not sensitized and challenged. […] Two hours before TDI-challenge, the third and fourth group (each n=6) were treated with 20 μl (10 μl on both, the inner and outer surface) AWD 12-281 (1%=200 μg) or 20 μl cilomilast (3%=600 μg; each in acetone/DMSO 9:1) to the right ears. […] These mice were sacrificed by cervical dislocation 24 hours after TDI challenge and the ears were collected (see below). […] Five weeks after the first challenge, the animals treated with AWD 12-281 (1%) and cilomilast (3%) “therapeutically” were challenged again. Before challenge, one group was treated with AWD 12-281 (3%).

[1] = system: granulocyte influx in the dermis of mice ears; test: Histological examination of mouse ear skin after TDI challenge; assay type: in vivo, BALB/c-mice; details: mouse ear skin 24 h after TDI challenge; topical treatment
Method: (§1) One part of the collected ears was fixed in 4% formaldehyde for histological section and stained with haematoxylin-eosin with respect to dermal thickness and granulocyte accumulation. These parameters were measured in 10 fields at 40 times magnification. The remaining tissue was shock-frozen and stored in liquid nitrogen immediately after sampling. For the determination of biochemical parameters, the mice ears were homogenized under liquid nitrogen. The homogenates were taken in 200 μl RPMI 1640 medium and the protease inhibitor Pefabloc® (1 mmol) was added and the samples were mixed intensively. After centrifugation (10000 g, 10 min, 4° C.), the supernatant was collected and the protein content was determined. The samples were stored at −80° C. until the cytokines were determined. Interleukin (IL) 4, IL-6 and MIP-2 were measured in the samples by ELISA using commercially available kits according to manufacturers instructions.

interleukin 4 = test: IL-4 in homogenized mouse ears after TDI challenge (ELISA); assay type: in vivo, BALB/c-mice; details: 24 h after TDI challenge, cilomilast 3%, diflorasone 0.05%; for concentration of interleukin 4 in homogenized mouse ears: topical 2 h before challenge, AWD 12-281 1%; for IL-4, mean inhibition (%) of the TDI induced synthesis: AWD 12-281 3%
Method: as §1

interleukin 6 = test: IL-6 in homogenized mouse ears after TDI challenge (ELISA); assay type: in vivo, BALB/c-mice; details: 24 h after TDI challenge, cilomilast 3%, diflorasone 0.05%; for concentration of interleukin 6 in homogenized mouse ears: topical 2 h before challenge, AWD 12-281 1%; for IL-6, mean inhibition (%) of the TDI induced synthesis: AWD 12-281 3%
Method: as §1

[2] = system: macrophage inflammatory protein 2; test: MIP-2 in homogenized mouse ears after TDI challenge (ELISA); assay type: in vivo, BALB/c-mice; details: 24 h after TDI challenge, cilomilast 3%, diflorasone 0.05%; for concentration of macrophage inflammatory protein 2 in homogenized mouse ears: topical 2 h before challenge, AWD 12-281 1%; for MIP-2, mean inhibition (%) of the TDI induced synthesis: AWD 12-281 3%
Method: as §1

[3] = system: chronic obstructive pulmonary disease; details: Phase II/III clinical trials; Giembycz, 2001, Dyke & Montana, 2002; cited from earlier work
IL-4 = details: Griswold et al., 1998; cited from earlier work
[4] = single topical application 2 h before TDI challenge, 1, 5 and 24 h after challenge
[5] = topical 1 h after TDI challenge (therapeutic), 24 h after challenge

SMILES | TDI-induced ear swelling (mice sensitized to TDI; [4]) | TDI-induced ear swelling (mice sensitized to TDI; [5]) | TDI-induced ear swelling (mice sensitized to TDI; topical 1 h after TDI challenge (therapeutic), 24 h after challenge, listed as Cilomilast) | TDI induced ear swelling (mice sensitized to TDI; treated 1 h after 0.5% TDI, 3% AWD 12-281, 10% cilomilast, ear swelling after 24 h (FIG. 6)) | edema and influx of inflammatory cells (mainly granulocytes) [1] | concentration of interleukin 4 in homogenized mouse ears (interleukin 4) | concentration of interleukin 4 in homogenized mouse ears (interleukin 4; listed as Cilomilast) | IL-4, mean inhibition (%) of the TDI induced synthesis (interleukin 4) [%] | concentration of interleukin 6 in homogenized mouse ears (interleukin 6) | concentration of interleukin 6 in homogenized mouse ears (interleukin 6; listed as Cilomilast) | IL-6, mean inhibition (%) of the TDI induced synthesis (interleukin 6) [%] | concentration of macrophage inflammatory protein 2 in homogenized mouse ears [2] | concentration of macrophage inflammatory protein 2 in homogenized mouse ears ([2]; listed as Cilomilast) | MIP-2, mean inhibition (%) of the TDI induced synthesis [2] [%] | lung function [3] | IL-4 in vivo (IL-4)
COc1ccc([C@]2(C#N)CC[C@@H](C(=O)O)CC2)cc1OC1CCCC1 [cilomilast] | inhibited the TDI-induced swelling significantly at all measured times | lacks significant inhibitory effects; also recorded: failed to do so | no significant inhibition; also recorded: slight, but not significant reduction of the swelling | did not show a significant inhibitory effect | inhibited these inflammatory processes markedly | inhibited the increase significantly | reduced the concentration of all mediators significantly | 74 | inhibited this response significantly | reduced the concentration of all mediators significantly | 49 | diminished the increase of the MIP-2 concentration significantly | reduced the concentration of all mediators significantly | 66 | clinically significant increase in lung function | inhibit IL-4 in vivo
CC(=O)OCC(=O)[C@@]1(OC(C)=O)[C@@H](C)C[C@H]2[C@@H]3C[C@H](F)C4=CC(=O)C=C[C@]4(C)[C@@]3(F)[C@@H](O)C[C@@]21C [diflorasone, reference compound] | inhibited the TDI-induced swelling significantly at all measured times | inhibited the TDI induced ear swelling significantly |  |  | inhibited these inflammatory processes markedly | reduced the concentration of all mediators significantly; also recorded: inhibited the increase significantly |  | 50 | reduced the concentration of all mediators significantly; also recorded: inhibited this response significantly |  | 52 | reduced the concentration of all mediators significantly; also recorded: diminished the increase of the MIP-2 concentration significantly |  | 76 |  | 
